Tests used:
[1] = In vitro glucose sensing at different glucose concentration (UPLC-MS, formation of linker-glucose); assay type: physicochemical; conditions: 0.42 mM linker, PBS pH 7.4, 37° C.
Protocol: The aim with the example is to evaluate the reaction rate of three different linkers at various glucose concentrations i.e. their ability to hydrolyse and react with glucose to form a linker glucose conjugate.
1.4 mg of linker 1 ((E)-N′-(3-(benzyloxy)propylidene)-4-methoxybenzohydrazide) was dissolved in 100 μL DMSO. 10 μL of the DMSO stock solution was added to 990 μL 1×PBS buffer pH 7.4, containing 1000 or 5000 equiv glucose, to give a final concentration of 0.42 mM of linker 1. The solutions were heated to 37° C. and analysed at different time points from 0 to 48 h by UPLC-MS (C18 column, acetonitrile/water/formic acid). The linker-glucose compound was analysed as percentage of the full conversion of the reaction.
1.3 mg and 1.4 mg of linker 14 ((E)-N′-(2-(benzyloxy)ethylidene)-4-methoxybenzohydrazide) and linker 15 ((E)-N′-(2-(benzyloxy)ethylidene)-2-hydroxy-4-methoxybenzohydrazide), respectively, was dissolved in 100 μL DMSO. 10 μL of each stock solution was added to 990 μL 1×PBS buffer pH 7.4 containing 1000, 5000 or 10,000 equiv glucose, to give a final linker concentration of 0.42 mM. The solutions were heated to 37° C. and analysed at different time points from 0 to 72 h by UPLC-MS (C18 column, acetonitrile/water/formic acid). The linker-glucose compounds were analysed as percentage of the full conversion of the reaction.

[2] = In vitro glucose sensing evaluation (LC-MS): reactivity of each linker towards glucose; assay type: physicochemical; conditions: phosphate buffer pH 7, 1000 equiv glucose, 37° C.
Protocol: The aim with this example is to evaluate the reactivity of each linker towards glucose.
1-1.5 mg of linker was dissolved in 100 μL DMSO. Immediately after solvation, 5 μL was added to 995 μL phosphate buffer pH 7 containing 1000 equiv glucose. The mixture was heated to 37° C. and analysed continuously by LC-MS

lean rats = test: In vivo scITT in lean rats; conditions: s.c., 5 U insulin-C18 or 0.5 U human insulin

Question: For `COc1ccc(C(=O)N/N=C/CCOCc2ccccc2)cc1` [Linker 1, (E)-N′-(3-(benzyloxy)propylidene)-4-methoxybenzohydrazide], which “% linker-glucose” value ([1]; 1000 equiv glucose, 0 h) is on record?
Answer: 0%

Question: What about the “% linker-glucose” value ([1]; 1000 equiv glucose, 1.5 h) of the same compound?
Answer: 3%

Question: And the “% linker-glucose” value ([1]; 1000 equiv glucose, 2 h)?
Answer: 3%

Question: And the “% linker-glucose” value ([1]; 1000 equiv glucose, 3 h)?
Answer: 5%

Question: And the “% linker-glucose” value ([1]; 1000 equiv glucose, 3.17 h)?
Answer: 4%

Question: And the “% linker-glucose” value ([1]; 1000 equiv glucose, 3.5 h)?
Answer: 4%

Question: And the “% linker-glucose” value ([1]; 1000 equiv glucose, 3.75 h)?
Answer: 4%

Question: And the “% linker-glucose” value ([1]; 1000 equiv glucose, 4 h)?
Answer: 5%

Question: And the “% linker-glucose” value ([1]; 1000 equiv glucose, 4.5 h)?
Answer: 6%

Question: What about the “% linker-glucose” value ([1]; 1000 equiv glucose, 4.75 h) of the same compound?
Answer: 6%

Question: And the “% linker-glucose” value ([1]; 1000 equiv glucose, 5 h)?
Answer: 6%

Question: What about the “% linker-glucose” value ([1]; 1000 equiv glucose, 5.5 h) of the same compound?
Answer: 6%

Question: And the “% linker-glucose” value ([1]; 1000 equiv glucose, 6 h)?
Answer: 9%

Question: What about the “% linker-glucose” value ([1]; 1000 equiv glucose, 7 h) of the same compound?
Answer: 9%

Question: And the “% linker-glucose” value ([1]; 1000 equiv glucose, 24 h)?
Answer: 29%

Question: And the “% linker-glucose” value ([1]; 1000 equiv glucose, 48 h)?
Answer: 70%

Question: What about the “% linker-glucose” value ([1]; 5000 equiv glucose, 0 h) of the same compound?
Answer: 0%

Question: And the “% linker-glucose” value ([1]; 5000 equiv glucose, 0.75 h)?
Answer: 3%

Question: What about the “% linker-glucose” value ([1]; 5000 equiv glucose, 1 h) of the same compound?
Answer: 6%

Question: And the “% linker-glucose” value ([1]; 5000 equiv glucose, 1.25 h)?
Answer: 7%

Question: And the “% linker-glucose” value ([1]; 5000 equiv glucose, 1.5 h)?
Answer: 10%

Question: And the “% linker-glucose” value ([1]; 5000 equiv glucose, 1.75 h)?
Answer: 10%

Question: What about the “% linker-glucose” value ([1]; 5000 equiv glucose, 2 h) of the same compound?
Answer: 14%

Question: And the “% linker-glucose” value ([1]; 5000 equiv glucose, 2.5 h)?
Answer: 18%

Question: What about the “% linker-glucose” value ([1]; 5000 equiv glucose, 7 h) of the same compound?
Answer: 49%

Question: What does the source list for `COc1ccc(C(=O)N/N=C/COCc2ccccc2)cc1` [Linker 14, (E)-N′-(2-(benzyloxy)ethylidene)-4-methoxybenzohydrazide]?
Answer: % linker-glucose ([1]; 1000 equiv glucose, 0 h): 0%; % linker-glucose ([1]; 1000 equiv glucose, 24 h): 7%; % linker-glucose ([1]; 1000 equiv glucose, 54 h): 11%; % linker-glucose ([1]; 1000 equiv glucose, 72 h): 17%; % linker-glucose ([1]; 5000 equiv glucose, 0 h): 0%; % linker-glucose ([1]; 5000 equiv glucose, 24 h): 16%; % linker-glucose ([1]; 5000 equiv glucose, 54 h): 30%; % linker-glucose ([1]; 5000 equiv glucose, 72 h): 50%; % linker-glucose ([1]; 10,000 equiv glucose, 0 h): 0%; % linker-glucose ([1]; 10,000 equiv glucose, 6 h): 3%; % linker-glucose ([1]; 10,000 equiv glucose, 24 h): 39%; % linker-glucose ([1]; 10,000 equiv glucose, 54 h): 62%; % linker-glucose ([1]; 10,000 equiv glucose, 72 h): 87%

Question: With `COc1ccc(C(=O)N/N=C/COCc2ccccc2)c(O)c1` [Linker 15, (E)-N′-(2-(benzyloxy)ethylidene)-2-hydroxy-4-methoxybenzohydrazide] as the compound, how does the “% linker-glucose” value ([1]; 1000 equiv glucose, 0 h) read?
Answer: 0%

Question: What about the “% linker-glucose” value ([1]; 1000 equiv glucose, 2 h) of the same compound?
Answer: 1%

Question: And the “% linker-glucose” value ([1]; 1000 equiv glucose, 4 h)?
Answer: 3%

Question: What about the “% linker-glucose” value ([1]; 1000 equiv glucose, 6 h) of the same compound?
Answer: 5%

Question: And the “% linker-glucose” value ([1]; 1000 equiv glucose, 24 h)?
Answer: 21%

Question: What about the “% linker-glucose” value ([1]; 1000 equiv glucose, 48 h) of the same compound?
Answer: 35%

Question: And the “% linker-glucose” value ([1]; 5000 equiv glucose, 0 h)?
Answer: 0%

Question: What about the “% linker-glucose” value ([1]; 5000 equiv glucose, 1 h) of the same compound?
Answer: 2%

Question: What about the “% linker-glucose” value ([1]; 5000 equiv glucose, 2 h) of the same compound?
Answer: 6%

Question: And the “% linker-glucose” value ([1]; 5000 equiv glucose, 4 h)?
Answer: 12%

Question: And the “% linker-glucose” value ([1]; 5000 equiv glucose, 6 h)?
Answer: 21%

Question: What about the “% linker-glucose” value ([1]; 5000 equiv glucose, 24 h) of the same compound?
Answer: 68%

Question: And the “% linker-glucose” value ([1]; 5000 equiv glucose, 48 h)?
Answer: 98%

Question: What about the “% linker-glucose” value ([1]; 10,000 equiv glucose, 0 h) of the same compound?
Answer: 0%

Question: What about the “% linker-glucose” value ([1]; 10,000 equiv glucose, 1 h) of the same compound?
Answer: 9%

Question: What about the “% linker-glucose” value ([1]; 10,000 equiv glucose, 2 h) of the same compound?
Answer: 15%

Question: And the “% linker-glucose” value ([1]; 10,000 equiv glucose, 4 h)?
Answer: 33%

Question: What about the “% linker-glucose” value ([1]; 10,000 equiv glucose, 6 h) of the same compound?
Answer: 44%

Question: What about the “% linker-glucose” value ([1]; 10,000 equiv glucose, 24 h) of the same compound?
Answer: 89%

Question: And the “% linker-glucose” value ([1]; 10,000 equiv glucose, 48 h)?
Answer: 99%

Question: And the “Linker-glucose observed” value [2]?
Answer: ≤ 5 h

Question: With “Human insulin: human insulin, the unmodified peptide hormone used as comparator” as the compound, how does the “Blood glucose % of vehicle (±SEM)” value (lean rats; 0 min (before)) read?
Answer: 95 ± 3%

Question: And the “Blood glucose % of vehicle (±SEM)” value (lean rats; 60 min)?
Answer: 64 ± 4%

Question: And the “Blood glucose % of vehicle (±SEM)” value (lean rats; 120 min)?
Answer: 55 ± 6%

Question: What about the “Blood glucose % of vehicle (±SEM)” value (lean rats; 180 min) of the same compound?
Answer: 66 ± 7%

Question: And the “Blood glucose % of vehicle (±SEM)” value (lean rats; 240 min)?
Answer: 76 ± 4%

Question: And the “Blood glucose % of vehicle (±SEM)” value (lean rats; 300 min)?
Answer: 76 ± 4%
